1 compound from patent US20050038007A1, “Dosage forms of cholesteryl ester transfer protein inhibitors and HMG-CoA reductase inhibitors” (Pfizer Inc, priority 2003, published 2005) can be followed below.

A short description of the data set: Aqueous solubility of torcetrapib. It counts as physicochemical. Conditions: water (aqueous), at about 22° C. The protocol: The CETP inhibitor may be any compound capable of inhibiting the cholesteryl ester transfer protein. […] Many CETP inhibitors have even lower solubilities (some even less than 0.1 μg/mL), and require dramatic concentration enhancement to be sufficiently bioavailable upon oral dosing for effective plasma concentrations to be reached at practical doses.
CETP inhibitors, in particular torcetrapib, and methods for preparing such compounds are disclosed in detail in U.S. Pat. Nos. 6,197,786 and 6,313,142, in PCT Application Nos. WO 01/40190A1, WO 02/088085A2, and WO 02/088069A2, the disclosures of which are herein incorporated by reference. Torcetrapib has an unusually low solubility in aqueous environments such as the lumenal fluid of the human GI tract. The aqueous solubility of torcetrapib is less than about 0.04 μg/ml. Torcetrapib must be presented to the GI tract in a solubility-improved form in order to achieve a sufficient drug concentration in the GI tract in order to achieve sufficient absorption into the blood to elicit the desired therapeutic effect.

`CCOC(=O)N1c2ccc(C(F)(F)F)cc2[C@@H](N(Cc2cc(C(F)(F)F)cc(C(F)(F)F)c2)C(=O)OC)C[C@H]1CC` [Torcetrapib, [2R,4S]-4-[(3,5-bis-trifluoromethyl-benzyl)-methoxycarbonyl-amino]-2-ethyl-6-trifluoromethyl-3,4-dihydro-2H-quinoline-1-carboxylic acid ethyl ester] returned a solubility of less than 0.04 µg/mL.
